Measured values reported in the NIST ThermoML archive (doi:10.1021/je900404r).

Key:
[1] = 101 kPa, Liquid, Vibrating tube method
[2] = xn = mol fraction of the nth substance listed; settings: 101 kPa, Liquid, Vibrating tube method

CC(Cl)(Cl)Cl [1,1,1-trichloroethane]
[1]
Settings	mass density [kg/m3]
288.15 K	1344.95
298.15 K	1328.27
308.15 K	1311.45
318.15 K	1294.47

CC(Cl)(Cl)Cl [1,1,1-trichloroethane] + O=C1CCCCC1
mass density [kg/m3], [2]
Settings	x1 = 0.1151	x1 = 0.2288	x1 = 0.3155	x1 = 0.4163	x1 = 0.5167	x1 = 0.6059	x1 = 0.7081	x1 = 0.8062	x1 = 0.8979	x1 = 1
288.15 K	996.74	1041.75	1076.19	1116.3	1156.17	1191.52	1231.85	1270.3	1305.81	1344.95
298.15 K	987.13	1031.43	1065.28	1104.68	1143.81	1178.45	1217.94	1255.52	1290.16	1328.27
308.15 K	977.49	1021.06	1054.33	1093.01	1131.39	1165.33	1203.95	1240.64	1274.41	1311.45
318.15 K	967.81	1010.65	1043.33	1081.28	1118.9	1152.12	1189.86	1225.64	1258.51	1294.47

ClC(Cl)C(Cl)Cl [1,1,2,2-tetrachloroethane]
[1]
Settings	mass density [kg/m3]
288.15 K	1604.75
298.15 K	1589.18
308.15 K	1573.57
318.15 K	1557.94

ClC(Cl)C(Cl)Cl [1,1,2,2-tetrachloroethane] + O=C1CCCCC1
mass density [kg/m3], [2]
Settings	x1 = 0.1147	x1 = 0.2121	x1 = 0.3045	x1 = 0.4052	x1 = 0.4996	x1 = 0.5909	x1 = 0.6868	x1 = 0.782	x1 = 0.8798	x1 = 1
288.15 K	1029.34	1094.87	1156.78	1223.8	1286.07	1345.8	1407.73	1468.5	1530.11	1604.75
298.15 K	1019.79	1084.77	1146.13	1212.52	1274.18	1333.31	1394.58	1454.64	1515.52	1589.18
308.15 K	1010.2	1074.62	1135.43	1201.2	1262.26	1320.77	1381.38	1440.76	1500.89	1573.57
318.15 K	1000.58	1064.44	1124.7	1189.84	1250.3	1308.2	1368.14	1426.83	1486.23	1557.94

ClCCCl [1,2-dichloroethane]
[1]
Settings	mass density [kg/m3]
288.15 K	1260.01
298.15 K	1245.48
308.15 K	1230.83
318.15 K	1216.04

ClCCCl [1,2-dichloroethane] + O=C1CCCCC1
mass density [kg/m3], [2]
Settings	x1 = 0.1142	x1 = 0.2318	x1 = 0.3197	x1 = 0.4227	x1 = 0.519	x1 = 0.6155	x1 = 0.7061	x1 = 0.8134	x1 = 0.9145	x1 = 1
288.15 K	978.81	1008.61	1032.1	1061.02	1089.5	1119.7	1149.67	1187.43	1225.5	1260.01
298.15 K	969.5	998.88	1022	1050.47	1078.46	1108.12	1137.52	1174.53	1211.76	1245.48
308.15 K	960.16	989.1	1011.86	1039.86	1067.36	1096.48	1125.3	1161.53	1197.92	1230.83
318.15 K	950.78	979.28	1001.67	1029.19	1056.19	1084.75	1112.98	1148.42	1183.96	1216.04

ClCCCCl [1,3-dichloropropane]
[1]
Settings	mass density [kg/m3]
288.15 K	1191.93
298.15 K	1179.58
308.15 K	1167.16
318.15 K	1154.67

ClCCCCl [1,3-dichloropropane] + O=C1CCCCC1
mass density [kg/m3], [2]
Settings	x1 = 0.1276	x1 = 0.227	x1 = 0.3268	x1 = 0.4189	x1 = 0.514	x1 = 0.6112	x1 = 0.7147	x1 = 0.8103	x1 = 0.8979	x1 = 1
288.15 K	979.76	1001.99	1024.79	1046.27	1068.86	1092.38	1118.03	1142.26	1164.89	1191.93
298.15 K	970.5	992.46	1014.95	1036.15	1058.41	1081.63	1106.86	1130.71	1152.99	1179.58
308.15 K	961.22	982.9	1005.09	1025.99	1047.94	1070.82	1095.64	1119.11	1141.03	1167.16
318.15 K	951.9	973.3	995.19	1015.78	1037.41	1059.94	1084.36	1107.45	1128.99	1154.67
